Measured values: patent publication US9249132B2, “Substituted bicyclic aromatic compounds as S-nitrosoglutathione reductase inhibitors” (Nivalis Therapeutics, Inc., priority 2010, dated 2016)

Columns and labels:
[1] = system: ovalbumin (OVA)-induced asthma; test: Mouse model of ovalbumin (OVA)-induced asthma, eosinophil infiltrate in BALF; assay type: in vivo; settings: three oral doses of 10 mg/kg at 48 h, 24 h, and 1 h prior to assessment; p<0.05
Experimental: A mouse model of ovalbumin (OVA)-induced asthma was used to screen GSNOR inhibitors for efficacy against methacholine (MCh)-induced bronchoconstriction/airway hyper-responsiveness. This is a widely used and well characterized model that presents with an acute, allergic asthma phenotype with similarities to human asthma. Efficacy of GSNOR inhibitors was assessed using a protocol in which GSNOR inhibitors were administered after OVA sensitization and airway challenge, and prior to challenge with MCh. Bronchoconstriction in response to challenge with increasing doses of MCh was assessed using whole body plethysmography (Penh; Buxco). The amount of eosinophil infiltrate into the bronchoaveolar lavage fluid (BALF) was also determined as a measure of lung inflammation. […]
In vivo airway responsiveness to methacholine was measured 24 h after the last OVA challenge in conscious, freely moving, spontaneously breathing mice with whole body plethysmography using a Buxco chamber (Wilmington, N.C.). […] The degree of bronchoconstriction was expressed as enhanced pause (Penh), a calculated dimensionless value, which correlates with the measurement of airway resistance, impedance, and intrapleural pressure in the same mouse. Penh readings were taken and averaged for 4 min. after each nebulization challenge. […]

GSNOR = biological target: T1, GSNOR (Homo sapiens, UniProt P11766); test: GSNOR assay (inhibition of GSNOR activity, change in 340 nm absorbance); assay type: biochemical; settings: 100 mM NaPO4 pH 7.4, 0.240 mM GSNO, 0.300 mM NADH, 0.5 μg/mL GSNO Reductase, 1% DMSO, 25° C.
T1 construct: made in house; host or cells: E. coli
Experimental: Various compounds were tested in vitro for their ability to inhibit GSNOR activity.
GSNOR expression and purification is described in Biochemistry 2000, 39, 10720-10729.
GSNOR Fermentation: Pre-cultures were grown from stabs of a GSNOR glycerol stock in 2XYT media containing 100 ug/ml ampicillin after an overnight incubation at 37° C. Cells were then added to fresh 2XYT (4 L) containing ampicillin and grown to an OD (A600) of 0.6-0.9 at 37° C. before induction. GSNOR expression was induced with 0.1% arabinose in an overnight incubation at 20° C.
GSNOR Purification: E. coli cell paste was lysed by nitrogen cavitation and the clarified lysate purified by Ni affinity chromatography on an AKTA FPLC (Amersham Pharmacia). The column was eluted in 20 mM Tris pH 8.0/250 mM NaCl with a 0-500 mM imidazole gradient. Eluted GSNOR fractions containing the Smt-GSNOR fusion were digested overnight with Ulp-1 at 4° C. to remove the affinity tag then re-run on the Ni column under the same conditions. GSNOR was recovered in the flowthrough fraction and for crystallography is further purified by Q-Sepharose and Heparin flowthrough chromatography in 20 mM Tris pH 8.0, 1 mM DTT, 10 uM ZnSO4.
GSNOR Assay: GSNO and enzyme/NADH Solutions are made up fresh each day. The solutions are filtered and allowed to warm to room temperature. GSNO solution: 100 mM NaPO4 (pH 7.4), 0.480 mM GSNO. 396 μL of GSNO Solution is added to a cuvette followed by 8 μL of test compound in DMSO (or DMSO only for full reaction control) and mixed with the pipette tip. Compounds to be tested are made up at a stock concentration of 10 mM in 100% DMSO. 2 fold serial dilutions are done in 100% DMSO. 8 μL of each dilution are added to an assay so that the final concentration of DMSO in the assay is 1%. The concentrations of compounds tested range from 100 to 0.003 μM. Enzyme/NADH solution: 100 mM NaPO4 (pH 7.4), 0.600 mM NADH, 1.0 μg/mL GSNO Reductase. 396 μL of the Enzyme/NADH solution is added to the cuvette to start the reaction. The cuvette is placed in the Cary 3E UV/Visible Spectrophotometer and the change in 340 nm absorbance/min at 25° C. is recorded for 3 minutes. The assays are done in triplicate for each compound concentration. IC50's for each compound are calculated using the standard curve analysis in the Enzyme Kinetics Module of SigmaPlot.
Final assay conditions: 100 mM NaPO4, pH 7.4, 0.240 mM GSNO, 0.300 mM NADH, 0.5 μg/mL GSNO Reductase, and 1% DMSO. Final volume: 800 μL/cuvette.

T1 sequence (P11766 whole entry): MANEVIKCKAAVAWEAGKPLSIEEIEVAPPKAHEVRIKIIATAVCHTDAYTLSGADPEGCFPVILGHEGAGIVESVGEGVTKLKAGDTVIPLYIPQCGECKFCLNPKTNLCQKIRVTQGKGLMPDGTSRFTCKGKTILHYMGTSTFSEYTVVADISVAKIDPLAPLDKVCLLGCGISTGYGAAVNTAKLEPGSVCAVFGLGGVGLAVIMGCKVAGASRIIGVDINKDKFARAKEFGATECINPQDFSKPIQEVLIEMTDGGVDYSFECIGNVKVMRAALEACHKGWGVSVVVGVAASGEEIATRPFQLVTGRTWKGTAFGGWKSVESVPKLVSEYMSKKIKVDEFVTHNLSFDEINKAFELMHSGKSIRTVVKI

## O=C(O)c1ccc(-c2ccc3cc(O)ccc3c2)c(Cl)c1 [Example 1, 3-chloro-4-(6-hydroxynaphthalen-2-yl)benzoic acid]
[1]
  decrease of eosinophil infiltration in BAL, of vehicle control: 44%
GSNOR
  IC50: < 50 nM
